From paper PMC6753678, “Fueling Open Innovation for Malaria Transmission-Blocking Drugs: Hundreds of Molecules Targeting Early Parasite Mosquito Stages” (Frontiers in Microbiology, 2019)
Like-named read-outs stand apart in the source and are kept apart here.

How the values were obtained:
[1] = system: 3D7-strain P. falciparum asexual parasites; experiment: P. falciparum asexual growth inhibition assay (Pf GIA); type: cell-based, Plasmodium falciparum; details: dose response confirmation; read-out: Pf asexual growth inhibition assays IC50
In short: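 Parasites at 0.25% parasitemia, 2% hematocrit in Albumax-supplemented RPMI were exposed to compounds in dose response for 72 h at 37°C under 5% CO2/5% O2. Viability was read as LDH activity (NBT/diaphorase, A650 after freeze-thaw). Percent inhibition was calculated against chloroquine and DMSO controls, mean of three biological replicates.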

[2] = system: HepG2 cells; experiment: HepG2 cytotoxicity assay; details: for IC50: read-out: HepG2 cytotoxicity assay IC50, dose response confirmation; for Pb ODA (this manuscript) HepG2 cytoxicity: HepG2 cytotoxicity listed with the Pb ODA data set (this manuscript)
In short: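 Cells at 2,500 per well in MEM with 10% fetal bovine serum and 1% NEAA were exposed to test compounds for 48 h at 37°C, 5% CO2. Viability was read by fluorescence, with percent inhibition calculated against 50 μM doxorubicin (positive) and DMSO (negative) controls.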

[3] = system: P. berghei ookinete development; details: for % inhibition, Replicate A / % inhibition, Replicate B: primary screen at 1 μM
[4] = HepG2 values of the three screens unified
[5] = read-out: Pb ODA IC50, this manuscript
[6] = read-out: Pb Ookinete development assay IC50, dose response confirmation
[7] = read-out: Pb ODA (this manuscript) IC50, P. berghei ookinete development assay, this manuscript
[8] = unified HepG2 value across the three screens

| SMILES | IC50 [1] [nM] | HepG2 cytoxicity (Pb ODA, this manuscript) [2] [µM] | Unified cytotox [2, 4] [µM] | IC50 [2] [nM] | Is compound selective in assay? Pb ODA active? ([3]; 1: YES, 0: NO) | % inhibition, Replicate A [3] [%] | % inhibition, Replicate B [3] [%] | IC50 [3, 5] [nM] | IC50 [3, 6] [nM] | Pb ODA (this manuscript) HepG2 cytoxicity [2] [µM] | Is compound selective in assay? Pb ODA active? [3] | IC50 [3, 7] [nM] | Unified cytotox [2, 8] [µM] |
| --- | --- | --- | --- | --- | --- | --- | --- | --- | --- | --- | --- | --- | --- |
| COc1ccc2nccc([C@@H](O)CN3CCC(NCc4cc5ccc(C#N)cc5[nH]4)CC3)c2c1.O=C(O)C(=O)O [TCMDC-140696] | 168 | 1.55 | 1.55 | 1550 | 0 (0: NO) | 54.58 | 89.62 | 1880 | 1880 |  |  |  |  |
| COc1ccc2nccc([C@@H](O)CN3CCC(NCc4cc5c(F)ccc(F)c5[nH]4)CC3)c2c1.O=C(O)C(=O)O [TCMDC-140739] | 98 | 14.79 | 14.79 | 14800 | 0 (0: NO) | 18.82 | 50.21 | 2790 | 2790 |  |  |  |  |
| COc1ccc2nccc([C@@H](O)CN3CCC(NC(=O)c4ccc5cc[nH]c5c4)CC3)c2c1.CS(=O)(=O)O [TCMDC-140743] | 1130 |  | 100.00 | 100000 | 1 (1: YES) | 89.95 | 58.25 | 460 | 459 |  |  |  |  |
| COc1ccc2nccc([C@@H](O)CN3CCC(NCc4cc5c(F)ccc(F)c5[nH]4)CC3)c2n1.CS(=O)(=O)O [TCMDC-140749] | 130 |  |  | 14100 |  | 52.78 | 27.90 |  | 3270 | 14.13 | 0 (key: 1: YES; 0: NO) | 3270 |  |
| COc1ccc2nccc([C@@H](O)CN3CCC(NCc4cc5ccccc5nc4O)CC3)c2c1.Cl [TCMDC-140759] | 431 | 48.98 | 48.98 | 49000 | 1 (1: YES) | 50.79 | 52.50 | 2010 | 2010 |  |  |  |  |
| O=C(NCc1ccco1)c1ccc(CN2CCN(C(c3ccccc3)c3ccccc3)CC2)cc1 [TCMDC-140763] | 1260 |  |  | 52500 | 1 (1: YES) | 50.96 | 28.39 | 1480 | 1480 |  |  |  | 52.48 |
| COc1ccc2nccc([C@@H](O)CN3CCC(NC(=O)c4cc5ccccc5[nH]4)CC3)c2c1.CS(=O)(=O)O [TCMDC-140780] | 940 | 50.70 | 50.70 | 50700 | 1 (1: YES) | 48.77 | 68.59 | 240 | 239 |  |  |  |  |
| COc1ccc2nccc([C@@H](O)CN3CCC(NC(=O)c4cc5c(F)cc(F)cc5[nH]4)CC3)c2c1.CS(=O)(=O)O [TCMDC-140781] | 301 | 11.22 | 11.22 | 11200 | 1 (1: YES) | 60.81 | 64.63 | 1000 | 1000 |  |  |  |  |
| COc1ccc2nccc([C@@H](O)CN3CCC(NCc4ccc5c(c4)NC(=O)CO5)CC3)c2c1.Cl [TCMDC-140793] | 721 |  |  | 28200 |  | 51.85 | 48.48 |  | 3630 | 28.18 | 0 (key: 1: YES; 0: NO) | 3630 |  |
| COc1ccc2nccc([C@@H](O)CN3CCC(NC(=O)/C=C/c4c[nH]c5c(C)cccc45)CC3)c2c1 [TCMDC-141000] | 433 | 51.29 | 51.29 | 51300 | 1 (1: YES) | 72.27 | 60.86 | 1900 | 1900 |  |  |  |  |
| CN(C)CCN(C)C(=O)c1cc(-c2ccncc2)c(-c2ccc(Cl)c(O)c2)o1.Cl [TCMDC-141393] | 2490 |  |  | 53700 | 1 (1: YES) | 35.76 | 53.63 | 1750 | 1750 |  |  |  | 53.70 |
| COc1ccc2nccc(NC(=O)C3(O)CCC(NCc4ccc5c(c4)NCCS5)CC3)c2n1.Cl (stereo not drawn) [TCMDC-141406] | 1040 |  |  | 24300 |  | 91.89 | 114.20 |  | 347 | 24.27 | 1 (key: 1: YES; 0: NO) | 350 |  |
